The values below come from patent US9243036B2, “Anti-microbial activity of synthetic peptides” (THE UNITED STATES OF AMERICA, as represented by the …, priority 2012, dated 2016).

Some results are limits rather than exact numbers.

For series [1] the following is noted: literature; cited from earlier work.
Series [2] concerns E. coli. As to the kind of experiment: Cytoplasmic membrane depolarization assay (diSC3-5) with parallel CFU plating. The class given is cell-based. As for the experimental part:
(§1) Membrane depolarization activity (Δψ) of the peptide was determined with intact E. coli and P. aeruginosa cells and the membrane potential-sensitive fluorescent dye, 3,3′-dipropylthiadicarbocyanine Iodide (diSC (3)5) (Invitrogen, Oregon), according to described methods (Sims, P. J., et al (1974) Biochemistry 13, 3315-3330). Briefly, bacterial cells of mid-logarithmic phase were harvested by centrifugation and washed twice with HEPES buffer (5 mM HEPES, 5 mM glucose, pH 7.6). The cells were suspended in the same buffer to an OD of 0.05. The cell suspension was incubated with […] diSC (3)5 until maximal uptake of the dye. 100 mM KCl was added to equilibrate the cytoplasmic and external potassium ion concentration of peptide, and fluorescence was monitored at an excitation wavelength of 622 nm and an emission wavelength of 670 nm. Polymyxin B was used as a positive control and S. aureus cells were used as negative control. Simultaneously the cells were plated on NA plates and incubated at 37° C. overnight to assess the number of CFU.
(§2) Cytoplasmic depolarization assay(Δψ) was performed using the membrane potential sensitive dye 3,3′-dipropylthiadicarbocyanine iodide (diSC3-5) (Zang, L. et al., (2001) J. Biol. Chem. 276, 35714-35722). This dye can cross the outer membrane of the bacterial cell and become concentrated in the cytoplasmic membrane and thereby it self-quenches its own fluorescence. Upon addition of a membrane-permeabilizing agent the dye is released with consequent increase in the fluorescence. EC5 at 8 μg/ml and 16 μg/ml caused rapid depolarization of the cytoplasmic membrane in both E. coli and P. aeruginosa resulting in the release of diSC3-5 within 5 min (FIG. 9C). […] However Polymyxin B even at its MIC of 0.5 μg/ml caused slow release of diSC3-5 when compared to EC5.

Series [3] relates to P. aeruginosa. Described as above. In kind it is cell-based. As to the method: as §1, §2
For series [4], the system named is E. coli. Description: Membrane permeability by PI and SYTO9 uptake (LIVE/DEAD BACLIGHT). The class given is cell-based. Conditions: even at the lowest concentration used. As for the experimental part:
(§3) The effects of EC5 on the membrane integrity of E. coli and P. aeruginosa cells were assessed using the LIVE/DEAD BACLIGHT™ kit (Invitrogen, Oregon) according to the manufacturer's protocol. Membrane integrity of the cells after the addition of different concentrations of peptide EC5 was measured using fluorescence micro plate reader (BioTek Instruments, Winooski, Vt.). Experiments were done in triplicates. PMB was used as a positive control.
(§4) The membrane permeabilizing activity of EC5 was also studied using the SYTO9 and PI staining method. SYTO9 stain labels both live and dead bacteria when alone, but propidium iodide stains only cells with damaged membranes, reducing the level of green fluorescent SYTO9 when both the dyes are present. […] The ratio of green versus red fluorescence can be calculated as a measure of live bacteria. […] Polymyxin B, an AMP with a net charge of +5 with membrane permeabilizing activity was used as positive control.

The test system of series [5] is P. aeruginosa. Described as above. In kind it is cell-based. The settings on record: even at the lowest concentration used. As to the method: as §3, §4
Series [6] deals with E. coli and P. aeruginosa. Description: MIC of polymyxin B (bacterium not stated; E. coli / P. aeruginosa context). The class given is cell-based. As for the experimental part:
In vitro anti-bacterial activity of EC5. The test microorganisms mentioned earlier in the experimental procedures were used to evaluate the bactericidal activity of EC5 peptide. The minimum inhibitory concentrations (MICs) of the peptide were determined by standard dilution assay as recommended by Clinical and Laboratory Standard Institutes (CLSI) guidelines (Azad, M. A., et al., (2011) Antimicrob. Agents Chemother. 55, 2137-2145). Bacteria were grown to mid-logarithmic phase in cation-supplemented Mueller-Hinton broth (MHB) (Becton Dickinson, Sparks, Md.) on an orbital shaker (37° C.) and diluted to a 0.5 McFarland standard to a final volume of 1 ml. Decreasing concentrations of the peptide were incubated with the microorganisms. Results were recorded by visual inspection after 24 h of incubation at 37° C. Assay was repeated three separate times to ensure reproducibility. […]
Cytoplasmic depolarization assay(Δψ) was performed using the membrane potential sensitive dye 3,3′-dipropylthiadicarbocyanine iodide (diSC3-5) (Zang, L. et al., (2001) J. Biol. Chem. 276, 35714-35722). This dye can cross the outer membrane of the bacterial cell and become concentrated in the cytoplasmic membrane and thereby it self-quenches its own fluorescence. Upon addition of a membrane-permeabilizing agent the dye is released with consequent increase in the fluorescence. […]

The conditions of series [7]: polymyxin B; cited from earlier work.
Setting [8] is: polymyxin B at 3.125 μg/ml, after 5 min of exposure.
Where [9] appears, read: polymyxin B at its MIC of 0.5 μg/ml, compared to EC5.

As for Polymyxin B, the toxicity result in series [1] is recorded as “high toxicity, especially nephrotoxicity”. In addition, the “time to complete inhibition of CFU” value in the series with E. coli [2] (polymyxin B at 3.125 μg/ml) and in the series with P. aeruginosa [3] (polymyxin B at 3.125 μg/ml) was ≤ 5 min in each case. The “release of diSC35 from the cells” value in the series on E. coli [2] (setting [8]) and with P. aeruginosa [3] (setting [8]) was “minimal release” throughout. The “release of diSC3-5” value with E. coli [2] (setting [9]) and in the series with P. aeruginosa [3] (setting [9]) was “slow release” each time. The “permeabilization of bacterial cell membranes” value with E. coli [4] and with P. aeruginosa [5] was “able to permeabilize almost all bacterial cell membranes” in each case. For the same substance, the “MIC of polymyxin B” value in series [6] stood at 0.5 µg/mL. Also, in series [7], the net charge result is recorded as “+5”.
